Consider 5 molecules from patent US20120308590A1, “IMP-3 OLIGOPEPTIDES AND VACCINES INCLUDING THE SAME” (OncoTherapy Science, Inc., priority 2009, published 2012).

Holding throughout (format): cell-based, human
The test system of data set [1] is CD107a on the cell surface of CTLs. Description: CD107a exposure on the cell surface of CTLs (FACS). As to conditions: CTLs specific to IMP-3-552-560 stimulated with the named peptide at 1 microgram/ml for 5 hours; mouse IgG staining 0.7%. The method, then:
The exposure of CD107a on the cell surface of the CTLs after antigen stimulation was detected by anti-CD107a antibody. […] These CTLs were cultured for 5 hours at 37 degrees C. and were subsequently stained with PE conjugated anti-human CD8 mAb. All peptides were used at a final concentration of 1 microgram/ml. Events shown are gated for CD8^+ T cells.

Data set [2] concerns T2 cells pulsed with cognate peptides. Description: 51Cr release assay of peptide-induced CTLs against peptide-pulsed T2 cells. As to the method: (§1) The DCs were pulsed with 20 micro-g/mL of the candidate peptides in the presence of 4 micro-g/mL beta2-microglobulin (Sigma-Aldrich, St. Louis, Mo., USA) for 2 hours at 37 degrees C. in AIM-V (Invitrogen Japan, Tokyo, Japan) containing 2% heat-inactivated autologous plasma. The cells were then irradiated (40 Gy) and incubated with the CD8^+ T cells. […] After 2 days, these cultures were supplemented with human recombinant IL-2 (PeproTech, Rocky Hill, N.J., USA) to a final concentration of 20 IU/mL. Two additional weekly stimulations with peptide-loaded autologous DCs, using the same procedure, were carried out on days 7 and 14. Six days after the last stimulation, the antigen-specific responses of the induced CTLs were investigated by IFN-gamma ELISPOT assay and ^51Cr release assay. […] For ^51Cr release assay, CTLs were co-cultured with peptide-pulsed T2 cells or cancer cells as a target cells (5×10^3/well) at the indicated effector/target ratio and a standard ^51Cr release assay was done as described previously (Komori H et al., Clin Cancer Res. 2006 May 1; 12 (9):2689-97).

The test system of data set [3] is MCF7 (IMP-3-, HLA-A2+). Description: 51Cr release assay of peptide-induced CTLs against cancer cell line. The method, then: as §1, with “The expression of IMP-3 was determined by reverse transcription-polymerase chain reaction analysis. […] The DCs” for “The DCs”
In data set [4] the test system is A549 (IMP-3+, HLA-A2-). The data set is described as above. As to conditions: for cytotoxicity: CTLs from lung cancer patient 14 (SEQ ID NOs: 3 and 5) and patient 4 (SEQ ID NO: 6) (FIG. 5B). As to the method: as §1, with “The expression of IMP-3 was determined by reverse transcription-polymerase chain reaction analysis. […] The DCs” for “The DCs”
Data set [5] relates to PANC-1 (IMP-3+, HLA-A2+). The description is as above. As to the method:
as §1, with “The expression of IMP-3 was determined by reverse transcription-polymerase chain reaction analysis. […] The DCs” for “The DCs”

For data set [6], the system named is MCF7/IMP-3 (MCF7 cells transfected with IMP-3 gene). Description: 51Cr release assay of peptide-induced CTLs against transfected cell line. Particulars: CTL lines generated from the healthy donors (FIG. 5C). As to the method: as §1, with “The expression of IMP-3 was determined by reverse transcription-polymerase chain reaction analysis. […] The DCs” for “The DCs”

Data set [7] has as its system SW620. Description: 51Cr release assay of peptide-induced CTLs against cancer cell line. Particulars: CTL lines generated from the healthy donors (FIG. 5D). The method, then: as §1, with “The expression of IMP-3 was determined by reverse transcription-polymerase chain reaction analysis. […] The DCs” for “The DCs”
The test system of data set [8] is SKHep1. The data set is described as above. As to conditions: CTL lines generated from the healthy donors (FIG. 5D). As to the method: as §1, with “The expression of IMP-3 was determined by reverse transcription-polymerase chain reaction analysis. […] The DCs” for “The DCs”
The mark [9] stands for this setting: CTLs from lung cancer patient 14 (SEQ ID NOs: 3 and 5) and patient 4 (SEQ ID NO: 6) (FIG. 5B).
Where [10] appears, read: CTLs induced from PBMCs of healthy donor 2 (FIG. 5A).
[11] abbreviates: CTLs induced from PBMCs of healthy donors, not to T2 pulsed with irrelevant HIV-A2 peptide (FIG. 3B).
The mark [12] stands for this setting: CTL lines generated from the healthy donors (FIG. 5C).
[13] abbreviates: CTL lines generated from the healthy donors (FIG. 5D).

Residues, ends and D or L forms follow the SMILES beside them.

For the molecule SLYNTYATL [HIV peptide], the “CD8+/CD107a+ cells of all CD8+ cells” value in data set [1] stood at 1.5%.

As for `CC[C@H](C)[C@H](NC(=O)[C@H](CCC(=O)O)NC(=O)[C@H](CCC(N)=O)NC(=O)[C@@H](NC(=O)[C@@H](N)CCCCN)[C@@H](C)CC)C(=O)N[C@@H](CC(C)C)C(=O)N[C@H](C(=O)N[C@@H](CCC(N)=O)C(=O)N[C@H](C(=O)O)C(C)C)[C@@H](C)O` [SEQ ID NO: 3, KIQEILTQV] (H-KIQEILTQV-OH), the cytotoxic activity entry is listed as “showed cytotoxic activity” in data set [2] (CTLs from PBMCs of lung cancer patient 4, no activity to T2 pulsed with HIV peptide (FIG. 4B)); “no cytotoxic activity” in data set [3] (setting [10]); “no cytotoxic activity” in data set [4] (setting [10]); “showed cytotoxic activity” in data set [5] (setting [9]); “showed cytotoxic activity” in data set [5] (setting [10]). The cytotoxicity entry in data set [3] (setting [9]) and in data set [4] was “without showing cytotoxicity” each time.

Consider `CC[C@H](C)[C@H](NC(=O)[C@@H](N)CCCCN)C(=O)N1CCC[C@H]1C(=O)N[C@H](C(=O)N[C@@H](CO)C(=O)NCC(=O)N1CCC[C@H]1C(=O)N[C@@H](Cc1ccccc1)C(=O)N[C@@H](CC(C)C)C(=O)O)C(C)C` [SEQ ID NO: 5, KIPVSGPFL] (H-KIPVSGPFL-OH), for which the cytotoxic activity entry is listed as “showed cytotoxic activity” in data set [2] (CTLs from PBMCs of lung cancer patient 3, no activity to T2 pulsed with HIV peptide (FIG. 4B)); “no cytotoxic activity” in data set [3] (setting [10]); “no cytotoxic activity” in data set [4] (setting [10]); “showed cytotoxic activity” in data set [5] (setting [9]); “showed cytotoxic activity” in data set [5] (setting [10]). Besides, the cytotoxicity result in data set [3] (setting [9]) and in data set [4] was “without showing cytotoxicity” throughout.

As to `CC(C)C[C@H](NC(=O)[C@@H](N)CC(N)=O)C(=O)N[C@@H](CO)C(=O)N[C@@H](CO)C(=O)N[C@@H](C)C(=O)N[C@@H](CCC(=O)O)C(=O)N[C@H](C(=O)N[C@H](C(=O)N[C@H](C(=O)O)C(C)C)C(C)C)C(C)C` [SEQ ID NO: 6, NLSSAEVVV] (H-NLSSAEVVV-OH), the cytotoxicity entry in data set [6] is on record as “exhibited cytotoxicity”; in data set [3] (setting [12]), “not against”; in data set [3] (setting [9]), “without showing cytotoxicity”; in data set [4], “without showing cytotoxicity”. Also, the cytotoxic activity result was “exhibited cytotoxic activity” in data set [2] (setting [11]); “exhibited cytotoxic activity” in data set [7]; “not against” in data set [3] (setting [13]); “no cytotoxic activity” in data set [3] (setting [10]); “not against” in data set [4] (setting [13]); “no cytotoxic activity” in data set [4] (setting [10]). Further, the cytotoxic activity entry was “exhibited cytotoxic activity” in data set [8], “showed cytotoxic activity” in data set [5] (setting [9]) and “showed cytotoxic activity” in data set [5] (setting [10]).

Turning to `CC(C)C[C@H](NC(=O)[C@H](CC(C)C)NC(=O)[C@@H](N)CCCNC(=N)N)C(=O)N[C@H](C(=O)N1CCC[C@H]1C(=O)N[C@H](C(=O)N[C@@H](CCC(N)=O)C(=O)N[C@@H](Cc1ccccc1)C(=O)N[C@H](C(=O)O)C(C)C)[C@@H](C)O)C(C)C` [SEQ ID NO: 1, RLLVPTQFV] (H-RLLVPTQFV-OH), the figures for the cytotoxicity result in data set [6] and in data set [3] (setting [12]) were “exhibited cytotoxicity” and “not against”, respectively. The cytotoxic activity result in data set [2] (setting [11]) was “exhibited cytotoxic activity”; in data set [7], “exhibited cytotoxic activity”; in data set [3] (setting [13]), “not against”; in data set [3] (setting [10]), “no cytotoxic activity”; in data set [4] (setting [13]), “not against”; in data set [4] (setting [10]) it was “no cytotoxic activity”. Moreover, the cytotoxic activity result was “exhibited cytotoxic activity” in data set [8] and “showed cytotoxic activity” in data set [5] (setting [10]).
